The results in this text go back to ChEMBL document CHEMBL4507264, “Data for DCP probe BAY-7598” (2021).

The target in data set [1] is NT-3 growth factor receptor (Homo sapiens) (UniProt Q16288). As to conditions: Compound concentration 1000.0 nM; call rule not given here.
Data set [2] is filed under the species Rattus norvegicus. The experiment in a line: Testosterone Eurofins-Panlabs radioligand binding assay. The following applies: Compound concentration 10.0 uM. On the set-up: ligand concentration 1.5 nM.
For data set [3], the target named is T1, Alpha-1D adrenergic receptor (Homo sapiens) (UniProt P25100).
T1 sequence (whole entry): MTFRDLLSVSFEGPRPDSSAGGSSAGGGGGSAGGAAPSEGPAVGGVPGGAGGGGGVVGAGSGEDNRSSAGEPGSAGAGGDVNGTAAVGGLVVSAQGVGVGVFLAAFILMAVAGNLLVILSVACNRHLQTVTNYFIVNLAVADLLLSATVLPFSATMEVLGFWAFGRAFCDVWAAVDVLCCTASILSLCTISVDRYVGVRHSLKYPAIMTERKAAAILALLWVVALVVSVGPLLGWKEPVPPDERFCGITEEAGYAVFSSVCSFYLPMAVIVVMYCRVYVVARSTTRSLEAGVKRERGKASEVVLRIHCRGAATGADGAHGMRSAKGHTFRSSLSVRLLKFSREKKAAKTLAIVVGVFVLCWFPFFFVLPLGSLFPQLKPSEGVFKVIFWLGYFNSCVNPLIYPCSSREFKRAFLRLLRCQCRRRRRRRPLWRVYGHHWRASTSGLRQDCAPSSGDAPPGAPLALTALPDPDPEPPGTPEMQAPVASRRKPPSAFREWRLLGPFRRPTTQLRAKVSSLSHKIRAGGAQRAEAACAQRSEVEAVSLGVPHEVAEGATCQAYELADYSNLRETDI
Kind of data set: Inhibition of Adrenergic alpha1D at 10 µM in the Eurofins-Panlabs radioligand binding assay (Eurofins_assay_203400). The following applies: Compound concentration 10.0 uM.

The species named for data set [4] is Mus musculus. Kind of data set: Inhibition of Interleukin IL-1 at 10 µM in the Eurofins-Panlabs radioligand binding assay (Eurofins_assay_243520). The following applies: Compound concentration 10.0 uM. More on the design: ligand concentration 0.1 nM.
Data set [5] deals with hERG (KCNH2) (Homo sapiens, UniProt Q12809). Kind of data set: Inhibition of Potassium Channel hERG at 10 µM in the Eurofins-Panlabs radioligand binding assay (Eurofins_assay_265900). The following applies: HEK-293 cells expressing human recombinant hERG, probe [3H] Astemizole, compound concentration 10 uM. More on the design: ligand concentration 1.5 nM, non-specific ligand with concentration Astemizole, incubation time 60 min, incubation temperature 25 °C.

The target in data set [6] is Neuropeptide Y receptor type 2 (Homo sapiens) (UniProt P49146). Kind of data set: Inhibition of Neuropeptide Y Y2 at 10 µM in the Eurofins-Panlabs radioligand binding assay (Eurofins_assay_257110). The following applies: Compound concentration 10.0 uM.
Neuropeptide Y receptor type 2 (Homo sapiens), sequence (P49146 whole entry): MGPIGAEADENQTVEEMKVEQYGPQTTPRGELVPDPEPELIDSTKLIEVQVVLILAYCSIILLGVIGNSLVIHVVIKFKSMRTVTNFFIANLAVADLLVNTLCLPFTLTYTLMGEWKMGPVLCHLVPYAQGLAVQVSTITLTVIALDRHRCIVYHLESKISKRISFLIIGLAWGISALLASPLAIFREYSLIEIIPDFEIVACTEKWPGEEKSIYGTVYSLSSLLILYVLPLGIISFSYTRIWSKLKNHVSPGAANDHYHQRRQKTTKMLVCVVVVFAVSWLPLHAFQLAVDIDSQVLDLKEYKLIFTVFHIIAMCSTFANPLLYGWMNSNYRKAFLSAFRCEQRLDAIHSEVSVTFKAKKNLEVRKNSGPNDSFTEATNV
Data set [7] concerns the target Glutamate NMDA receptor (Rattus norvegicus) (UniProt P35439+Q00959+Q00960+Q00961+Q62645+Q8VHN2+Q9R1M7). As to conditions: Compound concentration 10.0 uM.
Data set [8] deals with voltage-gated sodium channel, site 2 (Rattus norvegicus, UniProt F1LQQ7+O08562+O88420+O88457+P04774+P04775+P08104+P15389+P15390+Q62968). The experiment in a line: Inhibition of Sodium Channel, Site 2 at 10 µM in the Eurofins-Panlabs radioligand binding assay (Eurofins_assay_279510). As to conditions: male, Wistar, rat whole brain (except cerebellum) membranes, probe [3H] Batrachotoxinin, compound concentration 10 uM. On the set-up: ligand concentration 5 nM, non-specific ligand with concentration 100 µM Veratridine, incubation time 60 min, incubation temperature 37 °C. Format: protein assay.

For data set [9], the target named is Sodium-dependent serotonin transporter (Homo sapiens) (UniProt P31645). The following applies: Compound concentration 10.0 uM.
Sodium-dependent serotonin transporter (Homo sapiens), sequence (P31645 whole entry, looked up): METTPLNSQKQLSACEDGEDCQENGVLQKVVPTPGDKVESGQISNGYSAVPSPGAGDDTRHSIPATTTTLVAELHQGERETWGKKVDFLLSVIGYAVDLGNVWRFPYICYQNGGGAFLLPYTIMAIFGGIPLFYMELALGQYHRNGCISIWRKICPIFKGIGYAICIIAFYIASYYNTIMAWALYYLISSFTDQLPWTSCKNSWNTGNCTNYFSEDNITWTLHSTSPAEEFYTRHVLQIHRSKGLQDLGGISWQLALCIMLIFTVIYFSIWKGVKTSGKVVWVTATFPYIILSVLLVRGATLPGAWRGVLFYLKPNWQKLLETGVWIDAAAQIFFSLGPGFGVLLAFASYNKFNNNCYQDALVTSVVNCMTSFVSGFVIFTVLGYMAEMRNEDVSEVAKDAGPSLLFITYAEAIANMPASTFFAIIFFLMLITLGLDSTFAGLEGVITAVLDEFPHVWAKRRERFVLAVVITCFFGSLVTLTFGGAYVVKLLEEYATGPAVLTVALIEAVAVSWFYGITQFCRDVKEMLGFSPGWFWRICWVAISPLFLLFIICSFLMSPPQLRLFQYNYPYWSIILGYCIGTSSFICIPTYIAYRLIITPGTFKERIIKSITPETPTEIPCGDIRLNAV
Data set [10] has as its target 5-hydroxytryptamine receptor 3A (Homo sapiens) (UniProt P46098). As to conditions: Compound concentration 10.0 uM.
The target of data set [11] is 5-hydroxytryptamine receptor 2B (Homo sapiens) (UniProt P41595). The following applies: Compound concentration 10.0 uM.
5-hydroxytryptamine receptor 2B (Homo sapiens), sequence (P41595 whole entry): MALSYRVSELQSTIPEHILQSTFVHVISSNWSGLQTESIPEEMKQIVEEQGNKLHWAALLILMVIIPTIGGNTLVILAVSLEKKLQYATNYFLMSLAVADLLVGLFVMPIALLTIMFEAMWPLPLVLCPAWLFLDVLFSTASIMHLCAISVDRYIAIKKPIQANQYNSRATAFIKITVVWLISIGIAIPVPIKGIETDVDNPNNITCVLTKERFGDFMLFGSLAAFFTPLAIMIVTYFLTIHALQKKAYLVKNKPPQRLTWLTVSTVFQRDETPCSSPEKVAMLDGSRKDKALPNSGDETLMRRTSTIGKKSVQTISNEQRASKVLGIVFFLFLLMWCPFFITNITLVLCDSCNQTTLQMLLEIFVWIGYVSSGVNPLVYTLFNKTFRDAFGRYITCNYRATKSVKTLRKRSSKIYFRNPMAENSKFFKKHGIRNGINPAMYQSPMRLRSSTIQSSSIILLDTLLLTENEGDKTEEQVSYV
In data set [12] the target is Melatonin receptor type 1A (Homo sapiens) (UniProt P48039). Kind of data set: Inhibition of Melatonin MT1 at 10 µM in the Eurofins-Panlabs radioligand binding assay (Eurofins_assay_251600). On the set-up: ligand concentration 0.05 nM. The following applies: Compound concentration 10.0 uM.
Melatonin receptor type 1A (Homo sapiens), sequence (P48039 whole entry): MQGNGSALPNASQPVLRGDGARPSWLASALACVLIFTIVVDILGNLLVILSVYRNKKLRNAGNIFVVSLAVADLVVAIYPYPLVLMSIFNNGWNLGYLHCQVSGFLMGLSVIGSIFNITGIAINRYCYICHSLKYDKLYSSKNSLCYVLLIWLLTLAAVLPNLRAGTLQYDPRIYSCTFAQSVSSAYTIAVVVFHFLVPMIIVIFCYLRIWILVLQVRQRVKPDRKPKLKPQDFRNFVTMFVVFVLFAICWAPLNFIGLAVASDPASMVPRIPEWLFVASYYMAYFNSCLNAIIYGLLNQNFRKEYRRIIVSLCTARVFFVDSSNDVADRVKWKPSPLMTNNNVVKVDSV
Data set [13] concerns the target Sigma non-opioid intracellular receptor 1 (Homo sapiens) (UniProt Q99720). The experiment in a line: Sigma 1 Eurofins-Panlabs radioligand binding assay. More on the design: ligand concentration 8 nM. As to conditions: Compound concentration 10.0 uM.
The target in data set [14] is Neuropeptide Y receptor type 1 (Homo sapiens) (UniProt P25929). The experiment in a line: Inhibition of Neuropeptide Y Y1 at 10 µM in the Eurofins-Panlabs radioligand binding assay (Eurofins_assay_257010). The following applies: Compound concentration 10.0 uM.
Neuropeptide Y receptor type 1 (Homo sapiens), sequence (P25929 whole entry): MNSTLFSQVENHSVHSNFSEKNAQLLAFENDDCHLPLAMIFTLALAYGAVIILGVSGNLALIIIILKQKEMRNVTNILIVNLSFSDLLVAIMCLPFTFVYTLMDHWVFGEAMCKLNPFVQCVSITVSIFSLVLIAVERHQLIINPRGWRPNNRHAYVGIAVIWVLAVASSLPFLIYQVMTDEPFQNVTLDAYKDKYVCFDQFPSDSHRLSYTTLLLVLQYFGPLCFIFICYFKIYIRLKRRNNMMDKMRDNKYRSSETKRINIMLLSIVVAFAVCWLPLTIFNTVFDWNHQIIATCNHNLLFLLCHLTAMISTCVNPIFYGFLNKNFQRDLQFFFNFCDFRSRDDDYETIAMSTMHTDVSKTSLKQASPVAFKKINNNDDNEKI
Data set [15] deals with Adenosine receptor A2a (Homo sapiens) (UniProt P29274). As to conditions: Compound concentration 10.0 uM.
Adenosine receptor A2a (Homo sapiens), sequence (P29274 whole entry): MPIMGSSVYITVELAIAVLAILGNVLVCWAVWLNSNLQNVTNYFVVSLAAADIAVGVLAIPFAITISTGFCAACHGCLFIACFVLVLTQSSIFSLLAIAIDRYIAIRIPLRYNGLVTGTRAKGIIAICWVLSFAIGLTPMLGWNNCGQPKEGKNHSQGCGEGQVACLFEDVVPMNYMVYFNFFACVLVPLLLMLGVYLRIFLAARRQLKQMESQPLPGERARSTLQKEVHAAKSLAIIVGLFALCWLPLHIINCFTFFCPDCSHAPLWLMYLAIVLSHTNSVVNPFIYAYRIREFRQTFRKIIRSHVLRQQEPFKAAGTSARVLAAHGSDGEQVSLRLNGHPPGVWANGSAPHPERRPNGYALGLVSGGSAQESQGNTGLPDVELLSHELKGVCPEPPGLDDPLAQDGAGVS
Data set [16] addresses T2, GABA-A receptor; anion channel (Rattus norvegicus) (UniProt O09028+P15431+P18506+P18508+P19969+P20236+P23574+P23576+P28471+P28473+P30191+P62813+P63079+P63138+Q91ZM7+Q9ES14). The experiment in a line: Inhibition of GABAA, Muscimol, Central at 10 µM in the Eurofins-Panlabs radioligand binding assay (Eurofins_assay_226500). The following applies: Compound concentration 10.0 uM. Format: protein-complex assay.

In data set [17] the target is Cysteinyl leukotriene receptor 1 (Homo sapiens) (UniProt Q9Y271). The experiment in a line: Inhibition of Leukotriene, Cysteinyl CysLT1 at 10 µM in the Eurofins-Panlabs radioligand binding assay (Eurofins_assay_250460). On the set-up: ligand concentration 0.3 nM, non-specific ligand with concentration 0.3 µM Leukotriene D4, incubation time 30 min, incubation temperature 25 °C. As to conditions: Compound concentration 10.0 uM.
Cysteinyl leukotriene receptor 1 (Homo sapiens), sequence (Q9Y271 whole entry): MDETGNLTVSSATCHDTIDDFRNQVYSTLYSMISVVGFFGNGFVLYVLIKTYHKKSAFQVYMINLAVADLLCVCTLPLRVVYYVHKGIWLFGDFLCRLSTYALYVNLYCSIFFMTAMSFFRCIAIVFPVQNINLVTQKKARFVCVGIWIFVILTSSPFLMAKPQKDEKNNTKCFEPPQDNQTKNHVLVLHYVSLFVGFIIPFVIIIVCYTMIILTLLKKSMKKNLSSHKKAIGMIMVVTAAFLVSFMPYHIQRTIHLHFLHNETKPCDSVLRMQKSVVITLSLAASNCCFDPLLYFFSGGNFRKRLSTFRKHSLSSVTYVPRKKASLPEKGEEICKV

Data set [18] has as its target T2, GABA-A receptor; anion channel (Rattus norvegicus). The following applies: Compound concentration 10.0 uM.
For data set [19], the target named is T3, Muscarinic acetylcholine receptor M1 (Homo sapiens) (UniProt P11229).
T3 sequence (whole entry): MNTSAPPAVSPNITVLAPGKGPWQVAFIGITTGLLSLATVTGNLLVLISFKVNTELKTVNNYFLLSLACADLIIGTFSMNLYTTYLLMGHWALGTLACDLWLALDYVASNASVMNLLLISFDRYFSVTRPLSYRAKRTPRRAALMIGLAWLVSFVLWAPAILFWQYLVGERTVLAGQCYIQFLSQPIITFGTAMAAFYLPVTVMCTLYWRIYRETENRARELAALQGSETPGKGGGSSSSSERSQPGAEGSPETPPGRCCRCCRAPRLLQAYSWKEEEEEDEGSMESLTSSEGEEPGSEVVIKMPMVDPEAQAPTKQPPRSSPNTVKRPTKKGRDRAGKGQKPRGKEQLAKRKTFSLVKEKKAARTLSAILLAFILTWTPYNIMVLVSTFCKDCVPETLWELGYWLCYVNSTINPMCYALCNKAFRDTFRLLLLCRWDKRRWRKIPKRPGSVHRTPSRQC
The following applies: Compound concentration 10.0 uM.

Data set [20] is filed under the species Oryctolagus cuniculus. Kind of data set: Inhibition of Purinergic P2X at 10 µM in the Eurofins-Panlabs radioligand binding assay (Eurofins_assay_268700). The following applies: Compound concentration 10.0 uM. It is filed as protein assay.
The target of data set [21] is Mu-type opioid receptor (Homo sapiens) (UniProt P35372). The following applies: Compound concentration 10.0 uM.
Mu-type opioid receptor (Homo sapiens), sequence (P35372 whole entry): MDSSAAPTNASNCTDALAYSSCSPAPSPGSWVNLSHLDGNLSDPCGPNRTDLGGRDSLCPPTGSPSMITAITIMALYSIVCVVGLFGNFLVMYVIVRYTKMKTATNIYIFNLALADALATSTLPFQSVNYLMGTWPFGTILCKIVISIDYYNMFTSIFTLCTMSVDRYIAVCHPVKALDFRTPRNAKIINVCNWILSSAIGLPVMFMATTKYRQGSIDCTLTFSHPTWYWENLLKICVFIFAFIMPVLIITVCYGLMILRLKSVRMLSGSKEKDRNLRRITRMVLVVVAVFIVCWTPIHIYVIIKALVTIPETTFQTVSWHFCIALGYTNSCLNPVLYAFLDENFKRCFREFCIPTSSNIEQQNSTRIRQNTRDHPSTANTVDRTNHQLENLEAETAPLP

Structures are written as SMILES.

NT-3 growth factor receptor (Homo sapiens), sequence (Q16288 32-839 limits assumed): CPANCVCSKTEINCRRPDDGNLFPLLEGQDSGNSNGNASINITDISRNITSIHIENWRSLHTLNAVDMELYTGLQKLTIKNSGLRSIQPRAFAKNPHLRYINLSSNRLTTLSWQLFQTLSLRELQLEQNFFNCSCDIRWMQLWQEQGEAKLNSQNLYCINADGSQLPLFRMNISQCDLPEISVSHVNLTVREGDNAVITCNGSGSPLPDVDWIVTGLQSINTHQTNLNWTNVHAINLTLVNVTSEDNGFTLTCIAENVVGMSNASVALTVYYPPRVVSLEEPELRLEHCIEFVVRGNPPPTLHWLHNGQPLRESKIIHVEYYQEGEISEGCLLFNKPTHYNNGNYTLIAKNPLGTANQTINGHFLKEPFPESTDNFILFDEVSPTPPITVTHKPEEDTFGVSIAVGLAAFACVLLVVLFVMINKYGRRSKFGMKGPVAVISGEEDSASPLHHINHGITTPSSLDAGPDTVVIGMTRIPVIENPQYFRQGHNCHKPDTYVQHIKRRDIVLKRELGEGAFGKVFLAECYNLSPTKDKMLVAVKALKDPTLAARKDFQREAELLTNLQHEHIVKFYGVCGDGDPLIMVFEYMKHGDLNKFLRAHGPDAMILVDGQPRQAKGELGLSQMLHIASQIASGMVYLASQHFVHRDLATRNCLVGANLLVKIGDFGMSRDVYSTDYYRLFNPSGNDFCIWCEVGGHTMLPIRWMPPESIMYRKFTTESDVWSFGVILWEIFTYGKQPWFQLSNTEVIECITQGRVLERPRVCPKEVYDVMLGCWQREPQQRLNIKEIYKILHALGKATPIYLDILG
5-hydroxytryptamine receptor 3A (Homo sapiens), sequence (P46098 whole entry): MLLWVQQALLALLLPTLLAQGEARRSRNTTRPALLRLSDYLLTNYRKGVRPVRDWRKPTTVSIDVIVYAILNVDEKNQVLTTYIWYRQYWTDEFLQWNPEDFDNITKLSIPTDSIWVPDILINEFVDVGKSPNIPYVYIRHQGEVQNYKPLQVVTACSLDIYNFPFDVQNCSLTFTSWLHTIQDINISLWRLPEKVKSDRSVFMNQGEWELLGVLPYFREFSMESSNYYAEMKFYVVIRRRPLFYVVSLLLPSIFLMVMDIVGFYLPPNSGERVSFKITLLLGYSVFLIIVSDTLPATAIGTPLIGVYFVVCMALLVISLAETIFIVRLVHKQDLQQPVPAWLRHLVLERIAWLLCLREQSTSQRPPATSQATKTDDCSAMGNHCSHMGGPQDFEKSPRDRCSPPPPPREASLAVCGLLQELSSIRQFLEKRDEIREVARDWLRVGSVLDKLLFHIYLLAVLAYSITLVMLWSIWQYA
Sigma non-opioid intracellular receptor 1 (Homo sapiens), sequence (Q99720 whole entry): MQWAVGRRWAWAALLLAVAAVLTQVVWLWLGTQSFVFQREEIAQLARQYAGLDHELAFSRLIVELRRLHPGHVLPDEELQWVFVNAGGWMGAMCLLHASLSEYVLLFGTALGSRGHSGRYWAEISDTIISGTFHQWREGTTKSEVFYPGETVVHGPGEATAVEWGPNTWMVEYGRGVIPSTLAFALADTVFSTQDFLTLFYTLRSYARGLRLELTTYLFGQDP

A word on the residual activity: it is the activity still measured, relative to the control. With `O=C(O)[C@@H]1[C@@H](Cn2nnc3ccccc3c2=O)CC[C@H]1C(=O)c1ccc(OCCC2CCOCC2)cc1` [BAY-694], in data set [1], the residual activity is 86%.

A word on the inhibition: it is the change of the read-out against control, counted positive when it falls. On to `O=C(O)[C@H]1[C@H](Cn2nnc3ccccc3c2=O)CC[C@@H]1C(=O)c1ccc(OCCC2CCOCC2)cc1` [BAY-7598], for which the inhibition in data set [2] was 12%; in data set [3], -9%; in [4], 0%; in data set [6], 3%; in [7] it was 9%; in data set [9] it was 9%. Further, the inhibition in data set [10] is -7.84%; in data set [11], 4%; in [12], 2%; in [13], 15%; in data set [14] it was 1%; in [15] it was 7%. Also, the inhibition in [16] was 10%; in data set [17] it was 8%; in data set [18], -2%; in data set [19], 0%; in data set [20] it was -1%; in data set [21], -9%. Also, the residual activity in data set [1] was 82%. Also, the inhibition at 60 min, 10 µM in data set [5] is listed as 7% (not active); in data set [8], -1% (not active).
